Data reported in patent publication US20240060990A1, “SPATIAL SIGNALING NETWORKS FOR MULTIPLEXED DRUG RESPONSE MEASUREMENT AND MODELING” (Georgia Tech Research Corporation, priority 2022, published 2024).
Entries after “also recorded” stand apart in the source; their conditions may differ.

Tests used:
PC9 cells = assay: Cell survival: cell number on coverslip counted in ImageJ; format: cell-based, human
Method: The cell survival was measured based on the cell number on the coverslip. […] The cells were stained with p-EGFR, and β-tubulin and three ROIs were imaged for each concentration at 40×. The cell number on each ROI was counted in ImageJ following the steps: import the Channel image, make binary, convert it to masks, analyze particles, and then choose “masks” under the “show” option.

Cyclin E/CDK2 [1] = assay: RapMPI (multiplexed PLA) PPI counts in HCC827 cells; format: cell-based, human; conditions: 100 nM, 12 h, 5 PPI dataset
Method: (§1) Following that, the cells were then fixed and permeabilized with 1.6% formaldehyde in 1×PBS for 10 minutes at RT and 0.5% Triton X-100 for 10 minutes at RT, respectively. The cells were then blocked using a cell staining medium (CSM) containing 0.5% BSA, and 0.02% Sodium Azide in PBS. […] HCC827 cells were stained with p-ERK overnight followed by 1-hour incubation of secondary antibodies at RT, and 10 mins DAPI staining. The cells were then imaged at 40× magnification, and the intensity levels were analyzed. […] The coverslip was mounted to an acrylic holder for multiple cycles of staining.
(§2) RapMPI on cell cultures: For single color detection, each coverslip prepared with cells was stained with multiple PPIs with one PPI per cycle. The cells were fixed, permeabilized, and then ready for the following staining steps: 1) block the sample with Duolink blocking solution; 2) incubate it with one pair of proteins, conjugated to one PLUS and one MINUS oligonucleotide at 4° C. overnight.
(§3) PPI detection: PPI signals were detected using a custom algorithm leveraging a traditional image processing pipeline. More specifically, each PPI image was preprocessed as followed: images were first transformed using a top-hat filter of size 3 pixels to reduce the noise around PPI signals, then Laplacian of Gaussian images was used to detect bright local maxima as PPI signals. In 3D images, double detection of PPI was filtered out at the same position in consecutive Z stacks. After detecting all the PPI locations in 3D, PPI was observed within a 2.5-pixel radius (0.045 um) by creating a PPI neighborhood graph of radius threshold 2.5 pixels and getting all connected components in the graph. Finally, the mean position of the unique connected components in the graph was extracted as identified unique PPI signals in 3D.

p-AKT/mTOR = assay: as above; format: cell-based, human; conditions: 100 nM, 12 h, 5 PPI dataset
Method: as §1, §2, §3

p-ERK/c-Myc = assay: as above; format: cell-based, human
Method: as §1, §2, §3

HCC827 cells = assay: PPI network motif frequency in HCC827 cells; format: cell-based, human
Description: Spatial Graph Construction: For each detected PPI in a cell, the corresponding 2D or 3D localization was extracted, and a node was assigned in the created graph. The node labels are assigned by creating a one-hot encoding of the corresponding PPI detected for the node. Delaunay triangulation was used to create edges connecting the nodes in the graph and therefore create a PPI spatial graph for each cell. The models are trained in a multi-instance learning framework, that is a cell label for each instance was assigned based on the cell treatment condition of a group.

AKT/mTOR pathways = assay: RapMPI on HCC827 xenograft tissue; format: in vivo, mouse; conditions: 2-month vs 1-week treatment
Description: (§4) Tissues: HCC827-derived mouse xenografts were provided by Dr. Sun Shi-yong (Emory University). […] Mice were then euthanized, and the tumor was embedded in OCT for sectioning. The OCT tissues were fixed in acetone, rehydrated, permeabilized in 0.4% Triton X-100, blocked, and ready for multiplexed experiments.
(§5) The staining settings were the same as the RapMPI in cell cultures. The blocking step between cycles for tissue multiplexing was skipped to avoid hiding the signals. The tissue samples were mounted with 10% glycerol made in 1×PBS and covered the slide using a 24×50 mm No. 1 coverslip (3322, Thermo Scientific) to prevent evaporation during imaging. To de-coverslip the sample after imaging, the slide was placed in a vertical jar containing 1×PBS for around 10 minutes, and the coverslip was released due to gravity.
(§6) To avoid loss of PPI information due to cell segmentation error, a nearest-distance-based assignment method was used to assign the PPI signal detected and not in any cell segmentation mask. For each PPI signal not in any segmented cell regions, the nearest cell mask pixel was observed and if the distance was lower than a user-defined value, it was assigned to the cell to which the nearest cell mask pixel belonged.

MEK/ERK signaling = assay: RapMPI on HCC827 xenograft tissue; format: in vivo, mouse; conditions: 2-month vs 1-week treatment
Description: as §4, §5, §6

cyclin E/CDK2 [2] = assay: RapMPI on HCC827 xenograft tissue; format: in vivo, mouse; conditions: 1-week treatment (responders)
Description: as §4, §5, §6

p-ERK = conditions: up to 24 hours; cited from earlier work
Mcl-1 = conditions: cited from earlier work
c-MYC = conditions: EGFRm-sensitive cells; cited from earlier work
NSCLC patients = conditions: phase 3 clinical trial, 80 mg once daily, vs other EGFR-TKI drugs; cited from earlier work

Structure (SMILES): C=CC(=O)Nc1cc(Nc2nccc(-c3cn(C)c4ccccc34)n2)c(OC)cc1N(C)CCN(C)C [Osimertinib]
- cell viability, higher vs lower drug concentrations (PC9 cells; 48-hour treatment): further decreased the cell viability
- number of cells adhering to the coverslips (PC9 cells; 48-hour treatment, 0, 20, 40, 60 nM): decreased as the drug concentration has increased; also recorded: reduced the number of adherent PC9 cells compared to untreated ones
- interaction between cyclin E and CDK2 (PPI count) (Cyclin E/CDK2 [1]): effectively inhibited
- p-AKT/mTOR interactions in the cytoplasm (p-AKT/mTOR): downregulated the p-AKT/mTOR pathway reducing the interactions in the cytoplasm
- P-ERK/c-Myc interactions (PPI count) (p-ERK/c-Myc; 100 nM, 12 h, 5 PPI dataset): significantly increased interactions; also recorded: upregulation
- p-ERK/c-Myc PPI (p-ERK/c-Myc; 12 hours, 9 PPI dataset): effectively inhibited
- motif 9 (p-ERK/c-Myc & p-ERK/c-Myc) autoregulation (HCC827 cells; 5 PPI network): Increased autoregulation
- three-node motif 17 (Tead1/Yap&Tead1/Yap& p-ERK/c-Myc) (HCC827 cells; 5 PPI network): more interactions
- autoregulation of cyclin D1/CDK2 in motif 0 and motif 45 (HCC827 cells; 9 PPIs dataset): inhibited
- interaction between sox2/oct4 and Cyclin D1/CDK4 (motif 2, motif 47) (HCC827 cells; 9 PPIs dataset): downregulation
- AKT/mTOR pathways in pan-cytokeratin positive regions (AKT/mTOR pathways): downregulating
- MEK/ERK signaling in pan-cytokeratin positive regions (MEK/ERK signaling): enhanced
- cyclin E/CDK2 PPI in responders (cyclin E/CDK2 [2]): downregulation
- p-ERK, total protein level by western blot (p-ERK): inhibitory role of Osimertinib on p-ERK for up to 24 hours
- Mcl-1 level (Mcl-1): downregulates Mcl-1
- c-MYC degradation (c-MYC): induce the degradation of c-MYC
- overall survival (NSCLC patients): longer; also recorded: extended
- progression-free survival (NSCLC patients): longer; also recorded: extended
